For data set [1], the system named is human hepatocarcinoma cell line Hep3B. Description: In-vitro erythropoietin (EPO)-inducing activity experiment (EPO ELISA, OD450). Type of data set: cell-based. The note with it: Hep3B cells, incubated 24 hours at 37°C. How it is done:
In-vitro erythropoietin (EPO)-inducing activities of the compounds in Embodiments 10 to 12 were evaluated by using a human hepatocarcinoma cell line Hep3B (ATCC). Hep3B cells were cultured in an EMEM medium (Eagle's Minimum Essential Medium) at 37°C in the presence of 10% fetal bovine serum (FBS). Experimental steps were as follows: • (1) Cell preparation: the cells were inoculated in a 96-well plate, and cell plating was carried out according to an amount of 100 µL per well based on 2*10~4 per well. • (2) Preparation of compound concentration gradient: 100 µM, 20 µM, 2-parallel well detection. A solution with 200 times final concentration was prepared in a 96-well plate, the compound was diluted 200/3 times by using a cell culture medium, and then 50 µL of the compound was sucked for drug administration to the cells. 50 µL of DMSO-containing culture solution was added into a negative control well to make a final concentration contain 5 ‰ DMSO, and 50 µL of positive compound with the highest concentration was added into a positive control well to incubate the cells at 37°C for 24 hours. • (3) The reaction plate was washed twice with 1X Wash Buffer according to about 400 µL per well. • (4) 100 µL of diluted standard (comprising a standard blank control) was added into an appropriate well. • (5) 50 µL of sample and 50 µL of Sample Diluent were added into a sample well. • (6) 50 µL of 1X Biotin Conjugated Antibody were added into all wells to incubate the cells at room temperature for 1 hour. • (7) The reaction plate was washed with 1X Wash Buffer for 6 times according to about 400 µL per well. • (8) 100 µL of 1X Streptavidin-HRP was added in to each well to incubate the cells at room temperature for 15 minutes. • (9) The reaction plate was washed with 1X Wash Buffer for 6 times according to about 400 µL per well. • (10) 100 µL of TMB Substrate Solution was added into each well to incubate the cells at room temperature for 10 minutes. • (11) 100 µL of Stop Solution was added into each well. • (12) OD450 was read by EnSight.
The EPO-inducing activities of the compounds were expressed as the concentration for 50% of maximal effect (EC50).
Background: ELISA stands for enzyme-linked immunosorbent assay.

The nature of data set [2]: Pharmacokinetic evaluation after intravenous injection or intragastric administration, plasma LC-MS/MS. Type of data set: in vivo, SD rats. An excerpt: After the compounds were given to SD rats by intravenous injection or intragastric administration, concentrations of related compounds in plasma were detected by an LC-MS/MS method, and pharmacokinetics and absolute bioavailability of the compounds prepared in Embodiments 13 and 14 in the rats were preliminarily evaluated.
2. Line: Sprague Dawley rats, sex: male, weight: 200 g to 250 g
Pharmacokinetic characteristics of rodents after intravenous injection and oral administration of the compounds were tested by a standard scheme. In the experiment, a candidate compound was prepared into a clear solution, and given to the rats by single intravenous injection and intragastric administration. A solvent for intravenous injection was a certain proportion of N,N-dimethylacetamide (DMA) and 10% Solutol HS15 solution, and a solvent for oral administration was a certain proportion of sodium carboxymethyl cellulose (CMC) suspension. 5 minutes, 15 minutes, 30 minutes, 1 hour, 2 hours, 4 hours, 6 hours, 8 hours, 10 hours and 24 hours after drug administration, blood samples of the animals were respectively collected into K2EDTA anticoagulation tubes, which were temporarily stored on ice until centrifugation.

The subject of data set [3] is EPO (erythropoietin). Description: Pharmacological evaluation: influence of continuous administration on EPO level. The note with it: for EPO levels in serum of the rats: after 14 days of administration; for EPO levels in plasma of the rats: after administration, compared with the group of positive drug Enarodustat; for EPO level after 14 days of administration: individual rats 1-6; for EPO level after 14 days of administration / EPO level after 14 days of administration, Mean: 0.3 mg/mL, 10 mL/kg, once a day for 14 consecutive days, blood 4 hours after the drug on the 14th day, 2904.6 pg/mL was an upper limit of measurement; for EPO level after 14 days of administration, Mean: mean of 6 rats. Type of data set: in vivo, SD rats. How it is done:
This experiment was intended to evaluate an influence of continuous administration of the compounds prepared in Embodiments 12, 13 and 14 on EPO (erythropoietin) in SD rats.
• Line: SD (Sprague Dawley) • Weeks of age and weight: 8 weeks, weight 200 g to 220 g • Sex: male • Animal source: Beijing Vital River Laboratory Animal Technology Co., Ltd.
• Positive drug: Enarodustat • Description: commercialized drugs approved for marketing in Japan • Specification and content: 2 mg JTZ-951(Enarodustat), 140 capsules/box
After a week of adaptive feeding, SD rats were randomly divided into 3 groups, 6 rats in each group, which were namely a blank group, a positive drug group (Enarodustat) and a group of compound in Embodiment 12. An Enarodustat tablet was crushed by a mortar, then quantitatively added with 0.5% methyl cellulose, and magnetically stirred and mixed evenly; and the compound prepared in Embodiment 12 was weighed, then quantitatively added with 0.5% methyl cellulose, and magnetically stirred and mixed evenly. […] The drug was given once a day for 14 consecutive days, and blood was taken to measure an EPO level 4 hours after the drug was given on the 14th day.

The nature of data set [4]: Subacute toxicity test, 14 consecutive days. Type of data set: in vivo. The note with it: SD rats, 10 mg/kg once a day for 14 consecutive days, in words. The text has this: A proper amount of the compound in Embodiment 13 and a proper amount of the compound in Embodiment 14 were weighed by a balance and respectively placed into proper glass bottles, then DMSO, Solutol HS-15 and 0.9% physiological saline (in a ratio of v: v: v = 5%: 10%: 85%) were sequentially added into the glass bottles, and vortexed and stirred, and a drug dissolution condition was continuously concerned in the stirring process until the compounds were completely dissolved/suspended. Finally, drug solutions of the compound in Embodiment 13 and the compound in Embodiment 14 with a concentration of 0.67 mg/mL were prepared for current use.
An animal room was well ventilated, equipped with an air-conditioner, kept at a temperature of 20°C and 25°C and a humidity of 40% to 70%, and in light and dark conditions for 12 hours respectively, and the animals could eat and drink freely. SD rats with good physical signs could be selected for this experiment after being adaptively fed for at least 3 days before administration. Table 23 Source and number of experimental animals
Any operation on the experimental animals in this experiment met the requirements of the "Regulations for the Administration of Affairs Concerning Experimental Animals" issued by the Ministry of Science and Technology of the People's Republic of China. In this experiment, a solvent control group, an administration group of compound in Embodiment 13 and an administration group of compound in Embodiment 14 were set up. Administration dosages of the administration group of compound in Embodiment 13 and the administration group of compound in Embodiment 14 were (10 mg/kg) once a day for 14 consecutive days, while the same amount of blank solvent was given to the blank control group, and administration volumes were all 15 mL/kg. After each administration, symptoms and degrees of toxic reaction of the animals were observed. Recovery observation was carried out for 7 days after the last administration. […]
During the experiment, experimenters and veterinarians should observe physical signs and health conditions of the experimental animals continuously. Any abnormal manifestations of the animals, such as pain, depression and decreased activity should be recorded in original records of the experiment. […]
During the experiment, all animals were observed beside cages at least twice a day, and observed continuously for 2 hours after the drug administration. During the drug administration, if the animals had serious side effects or died, observation results should be recorded in a corresponding form. […]
The animals should be weighed before daily drug administration for 14 consecutive days, and the weights were recorded in a corresponding form. Food intakes of the experimental animals were detected during the experiment. […]

Data set [5] concerns the target T1, PHD2 enzyme (Homo sapiens, UniProt Q9GZT9).
T1 construct: purchased Active motif
Description: Detection of PHD2 enzyme activity inhibition (FITC-HIF1α tracer, mP read-out). Type of data set: biochemical. As to the method: (1) A 1×Assay buffer was prepared. […] 100 nL of 100% DMSO was added into a negative control well and a positive control well respectively. (3) An enzyme solution with 2 times final concentration was prepared with the 1×Assay buffer. (4) 5 µL of the enzyme solution with 2 times final concentration was added into a compound well and the positive control well respectively. (5) 5 µL of the 1 ×Assay buffer was added into the negative control well. (6) The 384-well plate was centrifuged at 1000 rpm for 30 seconds, oscillated and mixed evenly, and then incubated for 15 minutes. (7) A tracer solution with 2 times final concentration was prepared with the 1×Assay buffer, and 5.0 µL of the tracer solution with 2 times final concentration was added to start the reaction.

The test system of data set [6] is EPO (erythropoietin). Description: Pharmacological evaluation: influence of continuous administration on EPO level. Type of data set: in vivo, SD rats. The note with it: SD rat, continuous chronic administration, in words.
The mark [7] stands for this setting: SD rats, in words, compared with Enarodustat in the table.
[8] abbreviates: male SD rats, route and dose not given.

SMILES strings stand for the structures. Values joined by “and” are separate entries in the source; they are usually repeats but may differ in a detail not shown here. Equal values may be shown once. Read-outs that look alike come from different tables or passages of the source.

T1 sequence (Q9GZT9 whole entry, species assumed): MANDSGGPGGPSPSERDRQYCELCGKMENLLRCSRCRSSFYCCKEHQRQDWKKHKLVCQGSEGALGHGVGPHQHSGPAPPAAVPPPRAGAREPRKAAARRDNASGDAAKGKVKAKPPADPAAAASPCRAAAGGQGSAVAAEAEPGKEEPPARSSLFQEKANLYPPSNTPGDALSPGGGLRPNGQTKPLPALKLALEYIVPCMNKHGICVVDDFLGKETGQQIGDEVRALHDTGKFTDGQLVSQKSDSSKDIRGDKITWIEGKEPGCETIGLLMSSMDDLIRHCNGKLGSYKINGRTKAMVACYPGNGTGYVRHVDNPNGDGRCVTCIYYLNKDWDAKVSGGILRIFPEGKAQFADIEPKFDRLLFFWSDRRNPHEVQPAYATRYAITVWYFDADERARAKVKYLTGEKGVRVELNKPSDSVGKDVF

As usually defined, the EC50 is the concentration at which the effect is half-maximal. Compound `O=C(O)CNC(=O)c1c(O)cc(C2CCc3ccccc3C2)n2ncnc12` (single isomer, unassigned) [Compound in Embodiment 14, [(7-hydroxy-5-(1,2,3,4-tetrahydronaphthalene-2-yl)-[1,2,4]triazolo[1,5-a]pyridine-8-carbonyl)amino]acetic acid] returned an EC50 in data set [1] of 4.16 µM. For the same compound, in data set [2] (setting [7]), the half-lives result was “obviously longer” and the in-vivo exposure entry is “higher”. Moreover, the “Bioavailability F” value in data set [2] (male SD rats, intragastric vs intravenous) is listed as 31.3%. Also, in data set [2] (setting [8]), the “Concentration integral AUC” value is 15740 ng·h/mL and the “Half-life period T1/2” value amounted to 2.43 h. For the same compound, in data set [3] (in words), the “EPO levels in serum of the rats” value is “increased significantly” and the “EPO levels in plasma of the rats” value is listed as “significantly higher”. In addition, in data set [3], the “EPO level after 14 days of administration” value is 2279.1 pg/mL and 2095.6 pg/mL and 1982.7 pg/mL and 1943.6 pg/mL and 2038.9 pg/mL and 2137.6 pg/mL; the “EPO level after 14 days of administration, Mean” value (“EPO level after 14 days … Mean” for short) is recorded as 2079.6 pg/mL. In addition, the toxicities entry in data set [4] (compared with Enarodustat) is recorded as “lower than that of Enarodustat”. The gastrointestinal findings entry in data set [4] is “no obvious gastrointestinal necrosis, and bleeding spots or flatulence in a black stomach part”.

As usually defined, the IC50 is the concentration needed to halve the response being measured. In general, bioavailability refers to dose-corrected exposure relative to a reference, in per cent. For the compound `O=C(O)CNC(=O)c1c(O)cc(CCc2ccccc2)n2ncnc12` [Enarodustat, reference compound], the IC50 in data set [5] stood at 0.0219 µM. In data set [1] (Homo sapiens), this compound yielded an EC50 of 15.1 µM. Moreover, the AUC in data set [2] (male, Sprague-Dawley, rat, plasma, male SD rats, route and dose not given, read-out: Concentration integral AUC) came to 11400 ng·h/mL. Further, the half-life in data set [2] (male, Sprague-Dawley, rat, plasma, male SD rats, route and dose not given, read-out: Half-life period T1/2 (converted)) was 1.12 h. The bioavailability in data set [2] (male, Sprague-Dawley, rat, plasma, oral, male SD rats, intragastric vs intravenous, read-out: Bioavailability F) amounted to 30.1%. Further, the “EPO levels in serum of the rats” value in data set [3] (in words) was “increased significantly”. In addition, in data set [3], the “EPO level after 14 days of administration” value is 452.8 pg/mL and 396.3 pg/mL and 483.2 pg/mL and 404.5 pg/mL and 418.4 pg/mL and 442.3 pg/mL; the “EPO level after 14 days … Mean” value is on record as 432.9 pg/mL.

Regarding `O=C(O)CNC(=O)c1c(O)cc(C2CCc3ccccc3C2)n2ncnc12` (stereo not shown) [Compound in Embodiment 12, [(7-hydroxy-5-(1,2,3,4-tetrahydronaphthalene-2-yl)-[1,2,4]triazolo[1,5-a]pyridine-8-carbonyl)amino]acetic acid], the IC50 in data set [5] (test concentration from 10 µM, diluted 3 times into 10 concentrations, read-out: IC50) turned out to be 0.0343 µM. The EC50 in data set [1] (Homo sapiens, Hep3B, 24 h) came out at 6.79 µM. Also, the EPO level entry in data set [3] (SD rat, continuous chronic administration, in words) is listed as “significantly increase”. Further, in data set [3] (in words), the “EPO levels in serum of the rats” value is “increased significantly” and the “EPO levels in plasma of the rats” value is on record as “significantly higher”. Moreover, in data set [3], the “EPO level after 14 days of administration” value was 2649.3 pg/mL and ≥ 2904.6 pg/mL (4×) and 2882.6 pg/mL; the “EPO level after 14 days … Mean” value stood at 2858.4 pg/mL. Besides, in data set [6], the hemoglobin level result is given as “significantly increase”.

These data come from patent publication EP4578855A1, “PROLYL HYDROXYLASE INHIBITOR AND USE THEREOF” (Suzhong Pharmaceutical Group Co., Ltd., priority 2022, dated 2024).
